Laboratory results as given in the NIST ThermoML archive (doi:10.1021/acs.jced.9b00147).

Assay: xn = mol fraction of the nth substance listed
Details: 101.3 kPa, Liquid; for speed of sound: Single path-length method; for mass density: Vibrating tube method

CC(=O)[O-].OCC[NH2+]CCO [2,2'-azanediylbis(ethanol) acetate] + CC(C)O
Details | mass density, 293.15 K [kg/m3] | mass density, 303.15 K [kg/m3] | mass density, 313.15 K [kg/m3] | mass density, 323.15 K [kg/m3] | speed of sound, 293.15 K [m/s] | speed of sound, 303.15 K [m/s] | speed of sound, 313.15 K [m/s] | speed of sound, 323.15 K [m/s]
x1 = 0.102 | 857.7 | 849.5 | 841.1 | 832.5 | 1233.4 | 1200.3 | 1167.1 | 1133.6
x1 = 0.2 | 915.4 | 907.6 | 899.4 | 891.4 | 1301.5 | 1269.6 | 1237.8 | 1205.8
x1 = 0.299 | 965.3 | 957.7 | 949.8 | 942.3 | 1372.4 | 1341.2 | 1310.1 | 1279.1
x1 = 0.398 | 1009 | 1001 | 993.2 | 986.6 | 1448.2 | 1416.7 | 1386.3 | 1355.2
x1 = 0.502 | 1048 | 1041 | 1034 | 1025 | 1530.5 | 1498.3 | 1468.4 | 1438.7
x1 = 0.59 | 1076 | 1069 | 1061 | 1056 | 1596.5 | 1561.8 | 1530.4 | 1498.8
x1 = 0.696 | 1109 | 1102 | 1095 | 1089 | 1675.3 | 1638.8 | 1607 | 1576.7
x1 = 0.799 | 1137 | 1131 | 1124 | 1118 | 1756.3 | 1717.6 | 1684.7 | 1653.8
x1 = 0.9 | 1162 | 1155 | 1149 | 1142 | 1828.4 | 1782.1 | 1746.8 | 1714.4
x1 = 1 | 1180 | 1173 | 1167 | 1160 | 1884.7 | 1828.2 | 1788.6 | 1756

CC(=O)[O-].OCC[NH2+]CCO [2,2'-azanediylbis(ethanol) acetate] + CCCO
Details | mass density, 293.15 K [kg/m3] | mass density, 303.15 K [kg/m3] | mass density, 313.15 K [kg/m3] | mass density, 323.15 K [kg/m3] | speed of sound, 293.15 K [m/s] | speed of sound, 303.15 K [m/s] | speed of sound, 313.15 K [m/s] | speed of sound, 323.15 K [m/s]
x1 = 0.096 | 869.5 | 861.6 | 853.5 | 845.4 | 1286.3 | 1253.5 | 1221.2 | 1188.8
x1 = 0.199 | 929 | 921.2 | 913.4 | 905.7 | 1352.7 | 1321 | 1289.8 | 1258.8
x1 = 0.295 | 975 | 967.5 | 959.9 | 952 | 1415.2 | 1384.2 | 1353.6 | 1323.1
x1 = 0.4 | 1018 | 1012 | 1004 | 996.6 | 1488.2 | 1457.2 | 1427.3 | 1397.4
x1 = 0.501 | 1054 | 1047 | 1040 | 1033 | 1556.5 | 1524.7 | 1494.6 | 1465.4
x1 = 0.599 | 1085 | 1078 | 1072 | 1065 | 1626.4 | 1590.7 | 1559.2 | 1529.2
x1 = 0.697 | 1113 | 1106 | 1099 | 1093 | 1701.1 | 1657.4 | 1623.2 | 1592.3
x1 = 0.801 | 1137 | 1131 | 1124 | 1118 | 1756.5 | 1720.1 | 1688.9 | 1659.2
x1 = 0.901 | 1160 | 1153 | 1146 | 1140 | 1817.8 | 1772.9 | 1738.1 | 1707.4
x1 = 1 | 1180 | 1173 | 1167 | 1160 | 1884.7 | 1828.2 | 1788.6 | 1756
